A melting point compilation (Tetko et al.)

| SMILES | melting point |
| --- | --- |
| CCOC(=O)c1[nH]c(C)c(C(=O)O)c1C | 103 to 105 °C |
| COc1ccc(CC(N)c2ccc(OC)cc2)cc1 (stereo not drawn) | 175 to 177 °C |
| CCN1CC(C(=O)O)CC1=O (stereo not drawn) | 92 to 94 °C |
| CC(Cc1ccc(Cl)cc1)NC(=O)OC(C)(C)C (stereo not drawn) | 93 to 95 °C |
| O=c1[nH]c2ccc(NCc3ccc(Cl)cc3)cc2[nH]1 | 264 to 266 °C |
| Brc1cnc2nccn2c1 | 201 to 203 °C |
| CNCC1CCN(c2ccncc2)CC1 | 65 to 67 °C |
| Cc1sc2nc(CCl)[nH]c(=O)c2c1C | 190 to 192 °C |
| CC(C)(C)OC(=O)N1CCN(CCS(N)(=O)=O)CC1 | 138 to 140 °C |
| Cc1cc(F)c2c(c1)C(=O)C(=O)N2 | 225 to 227 °C |
| NCc1ccccc1CN1CCC(O)CC1 | 83 to 85 °C |
| Clc1nc(-c2cccc(Oc3ccccc3)c2)no1 | 50 to 52 °C |
| Cc1cc(N2CCSCC2)ccc1N | 79 to 81 °C |
| O=C(c1cc(Cl)ccn1)N1CCCCC1 | 60 to 62 °C |
| O=[N+]([O-])c1ccc(-c2nc(CCl)co2)cc1 | 119 to 121 °C |
| Cc1ccc(-c2nc3ccc(F)cc3n2C(C)C)cc1N | 183 to 185 °C |
| NC(Cc1ccc(Cl)cc1)=NO | 96 to 98 °C |
| O=[N+]([O-])c1cc(S(=O)(=O)Nc2ccccc2)ccc1Cl | 87 to 89 °C |
| CNS(=O)(=O)Cc1cc(C)on1 | 69 to 71 °C |
| Cn1ccnc1C(O)(CC(=O)O)C(F)(F)F (stereo not drawn) | 186 to 188 °C |
| O=C(O)CN1CCC(=O)NC1=O | 197 to 199 °C |
| CC(C)(C)NCCC(N)=O | 95 to 97 °C |
| N#Cc1cnc2ccc(OC(F)F)cc2c1Cl | 103 to 105 °C |

| SMILES | melting point |
| --- | --- |
| COCCCS(N)(=O)=O | 41 to 43 °C |
| COc1ccc(CC#N)c(Cl)c1OC | 55 to 57 °C |
| Nc1ccc(CN2C(=O)CCC2=O)cc1 | 141 to 143 °C |
| CC(C)(C)OC(=O)N1C(=O)N(CC#N)C(C)(C)C1=O | 149 to 151 °C |
| CCC(=O)c1ccc(Oc2ccccc2)cc1 | 39 to 41 °C |
| O=S(=O)(Cl)C1c2ccccc2-c2ccccc21 | 84 to 86 °C |
| CCN(c1ccccc1)S(=O)(=O)c1ccc(Cl)nc1 | 81 to 83 °C |
| Nc1sc2c(c1C(=O)NC1CC1)CCC2 | 170 to 172 °C |
| O=S(=O)(Cl)c1ccc(S(=O)(=O)C(F)F)cc1 | 139 to 141 °C |
| CCc1cc(Cl)nc(-c2ccccn2)n1 | 79 to 81 °C |
| O=C(O)c1cnc(-c2ccncc2)s1 | 307 to 309 °C |
| NS(=O)(=O)c1cccc2cnccc12 | 222 to 224 °C |
| C#CCOc1cccc(S(C)(=O)=O)c1 | 89 to 91 °C |
| CN(C)C(=O)c1cnc(Cl)c(Cl)c1 | 89 to 91 °C |
| S=C1Cc2ccccc2N1 | 146 to 148 °C |
| Cc1ccc(-c2nn(-c3ccccc3)cc2CO)cc1C | 134 to 136 °C |
| C#CCNC(C)=O | 79 to 81 °C |
| Cc1cc(NC(=O)CCl)no1 | 182 to 190 °C |
| Cc1nc2ccc(N)cc2o1 | 129 to 131 °C |
| O=C1Nc2ccc(S(=O)(=O)Cl)cc2C1(Cl)Cl | 134 to 136 °C |
| NC(CCl)=NO | 83 to 87 °C |
| Cn1cc(C=O)c(-c2cccs2)n1 | 64 to 66 °C |
| CC(C)(C)OC(=O)c1ccc(C#N)cc1 | 74 to 76 °C |

| SMILES | melting point |
| --- | --- |
| CC(C)(c1ccccc1)c1nnc(N)s1 | 149 to 151 °C |
| CC1Nc2ncccc2NC1=O (stereo not drawn) | 272 to 274 °C |
| CCS(=O)(=O)NC1CCCNC1 (stereo not drawn) | 104 to 106 °C |
| O=C(O)CC1(CC(=O)Nc2nccs2)CCCCC1 | 175 to 177 °C |
| Nc1ccc(S(=O)(=O)NC2CC2)cc1 | 145 to 147 °C |
| ClCc1csc(-c2ncccn2)n1 | 147 to 149 °C |
| O=C(O)CCNc1nccs1 | 171 to 173 °C |
| NC(=S)COc1ccc(F)cc1 | 120 to 122 °C |
| O=C(O)CCNc1ccccn1 | 169 to 171 °C |
| NC(=S)Cc1nccn1Cc1ccccc1 | 131 to 133 °C |
| N#CCC(=O)NC1CCCC1 | 92 to 94 °C |
| Cc1ccnc(Oc2cc(N)ccc2C)c1 | 76 to 78 °C |
| Sc1ncnc2ccccc12 | 293 to 295 °C |
| O=C1CCc2c(OCc3ccccc3)cccc21 | 71 to 73 °C |
| O=C(O)C1(Sc2ccccc2)CCCC1 | 65 to 67 °C |
| O=C1COc2cc([N+](=O)[O-])c(F)cc2N1 | 221 to 223 °C |
| COc1cccc(-c2nnc(N)s2)c1 | 156 to 158 °C |
| N#CC1CSCCN1 (stereo not drawn) | 81 to 83 °C |
| Nc1cccc(NS(=O)(=O)c2ccc(Cl)cc2)c1 | 112 to 114 °C |
| Nc1nc(C2CC2)c(Cc2ccccc2F)s1 | 114 to 116 °C |
| O=C(O)CNc1ncccn1 | 169 to 171 °C |
| Cc1nn(C)c(C(=O)O)c1[N+](=O)[O-] | 146 to 148 °C |

More lines, now with the values ahead:

| melting point | SMILES |
| --- | --- |
| 229 to 231 °C | NC(C(=O)O)c1ccccc1F (stereo not drawn) |
| 183 to 185 °C | NC(=O)c1ccccc1I |
| 189 to 191 °C | O=C(O)c1ccc(Cl)cc1NS(=O)(=O)c1ccccc1 |
| 154 to 156 °C | CCNS(=O)(=O)c1ccc(F)c(C(=O)O)c1 |
| 218 to 220 °C | O=C(O)Cn1cc(C(F)(F)F)ccc1=O |
| 182 to 184 °C | COc1ccc(-n2ccc(C(=O)O)n2)cc1 |
| 203 to 205 °C | Cc1[nH]c2ccccc2c1C(=O)CBr |
| 168 to 170 °C | Cc1cccc(-c2nn(-c3ccc(F)cc3)cc2C(=O)O)c1 |
| 100 to 102 °C | CC(Cl)C(=O)NCc1ccc(Cl)cc1 (stereo not drawn) |
| 189 to 191 °C | Cc1cccc(NC(=O)N2CCC(C(=O)O)CC2)c1 |
| 122 to 124 °C | COc1ccc(C(C)=O)cc1CC(=O)O |
| 129 to 131 °C | O=C(O)c1cccc(Nc2ccccc2)c1 |
| 64 to 66 °C | CC(C)C(=O)c1ccc(S(=O)(=O)Cl)cc1 |
| 201 to 203 °C | Cc1ccc(N)cc1NC(=O)c1ccncc1 |
| 89 to 91 °C | CC(C)(C(=O)O)c1ccc(F)cc1 |
| 157 to 159 °C | CC(CO)NC(=O)C1=Cc2cc(Br)ccc2OC1 (stereo not drawn) |
| 138 to 140 °C | NC(=O)c1ccc(Br)c(C(F)(F)F)c1 |
| 76 to 78 °C | Cc1cccnc1C(=O)NN |

| melting point | SMILES |
| --- | --- |
| 43 to 45 °C | N#CCc1cc(Br)ccc1F |
| 201 to 203 °C | O=C1CCCN1c1cccc(O)c1 |
| 149 to 151 °C | CCOC(=O)/C(C#N)=C/Nc1ccc(Br)cc1 |
| 123 to 125 °C | CCC(C)NC(=O)c1ccc(N)c(C)c1 (stereo not drawn) |
| 278 to 280 °C | Cc1cc(Br)cc2ccc(=O)[nH]c12 |
| 123 to 125 °C | O=C(c1ccc(Br)cc1)N1CCc2ccccc21 |
| 223 to 225 °C | O=C(O)c1cccnc1Sc1ccc(Br)cc1 |
| 265 to 267 °C | CCOc1ccc(N2C(=O)c3ccc(C(=O)O)cc3C2=O)cc1 |
| 236 to 238 °C | Cc1nc(Cc2ccccc2)sc1C(=O)O |
| 214 to 216 °C | O=C(O)c1cccc(N2CCOC2=O)c1 |
| 139 to 141 °C | COc1ccc(Br)c(C(=O)O)c1N |
| 166 to 168 °C | O=C(O)c1cccnc1Oc1ccccc1Br |
| 150 to 152 °C | Cc1cc(-n2cccc2)ccc1C(=O)O |
| 158 to 160 °C | Cc1nnnn1C(Cc1cccc(F)c1)C(=O)O (stereo not drawn) |
| 103 to 105 °C | CC(=O)c1ccc(Cl)c(N)c1 |
| 197 to 199 °C | Cc1ccc(-c2ccc(C(=O)O)s2)o1 |
| 166 to 168 °C | CCOC(=O)c1sc(-c2cccc([N+](=O)[O-])c2)cc1N |
